Measurements: patent US10160791B2, “Protamine in treatment of neuronal injuries” (UNIVERSITY OF HELSINKI, priority 2013, dated 2018)
Entries after “also recorded” stand apart in the source; their conditions may differ.

Columns and labels:
[1] = test system: embryonic rat cortical neurons; test: Neurite outgrowth assay on aggrecan-coated substrate, cortical neurons; format: cell-based; conditions: E17 rat cortical neurons, plates precoated with aggrecan 10 μg/ml, cultured 1.5-3.5 days
Method: (§1) Cortical or hippocampal neurons from E17 rat embryos were plated at 50,000 cells/cm2 on plastic cell culture plates. Plates were precoated with aggrecan or IgG (10 μg/ml). Protamine, or derived peptides, were precoated together with aggrecan or added to culture medium when plating neurons. Cells were cultured for 1.5-3.5 days and after that images of cell cultures were taken using phase contrast microscope with ×20 objective. Neurite length was quantified using ImagePro software. Mouse neurons were immunostained with anti-tubulin βIII antibodies and imaged using fluorescent microscope.

[2] = test system: wild type RPTPσ; test: RPTPσ binding assay (ELISA, biotinylated aggrecan), wild type RPTPσ; set-up: species or system mouse; conditions: FIG. 4
Excerpt: (§2) Protamine (salmon) and protamine sulphate (herring) were from Sigma, protamine sulphate (salmon) was from Leo Pharma. Bovine aggrecan was from Sigma. The DNA sequence (the template cDNA clone MGC:63375 IMAGE:6834684) of the CSPG-binding domain of mouse RPTPσ was used for Fc-tagged RPTPσ protein production. Peptides derived from the protamine sequence were custom synthesised by CASLO ApS (Denmark).
(§3) The Fc-tagged extracellular domain of RPTPσ was immobilized on protein G-coated plates. Binding of biotinylated aggrecan to RPTPσ was quantified via colorimetric assay using streptavidin-conjugated horse radish peroxidise. Experiments were done by using protein G coated 96 well plates (Pierce, prod. #15133). Wells were first washed briefly with PBS, 0.05% Tween-20 solution. RPTPσ wild type and mutant FC-fusion proteins were diluted into 2 μg/ml solution in buffer containing PBS, 1% BSA, 0.05% Tween-20. 150 μl of protein solution was added into the wells and plates were left for shaking at +RT for 1 hour. […] Detection of bound Streptavidin-Peroxidase Polymer was done by adding 200 μl of OPD (o-Phenylenediamine dihydrochloride, SIGMA P9187) substrate into the wells and was measured by reading the absorbance at 450 nm (A450).
(§4) Aggrecan binding to RPTPσ was assessed via ELISA using Fc-tagged RPTPσ and biotinylated aggrecan. Binding was quantified using streptavidin-bound horse radish peroxidase. […]

[3] = test system: Mutant RPTPσ, with a defective CSPG-binding site; test: RPTPσ binding assay (ELISA, biotinylated aggrecan), mutant RPTPσ; set-up: species or system mouse; conditions: negative control, biotinylated aggrecan 5 μg/ml, protamine 0-5 μg/ml
Excerpt: as §2, §3, §4

[4] = test system: embryonic rat hippocampal neurons; test: Neurite outgrowth assay on aggrecan-coated substrate, hippocampal neurons; format: cell-based; conditions: E17 rat hippocampal neurons, plates precoated with aggrecan 10 μg/ml
Method: as §1

[5] = test system: mice with spinal cord hemisection; test: Cylinder test of limb use asymmetry after spinal cord hemisection; format: in vivo, mouse; conditions: intracerebroventricular injection, compared to vehicle
Method: (§5) Animals were anaesthetized with a intraperitoneal mixture of Ketaminol (2 mg/20 g body weight, Intervet) and Rompun (0.25 mg/20 g body weight, Bayer). After laminectomy at C5 vertebral level, the dura was carefully removed. The right cervical spinal hemicord was transected with a 25G syringe needle from midline dorsal vessel to the lateral side. Bleeding was controlled with haemostatic gelatin sponge. Muscle and skin were sutured with 6-0 monocryl. 30 min before surgery and during following 3 days mice were treated with antibiotic Borgal (30 mg/kg, Intervet). Body weight and bladder expression were checked for 7 days, and animal received Rimadil (5 mg/kg, Pfizer) and Rapidexon (0.2 mg/kg, Evrovet) to control pain and inflammatory swelling until they stop to lose body weight.
Cylinder Test of Limb Use Asymmetry. Mouse was placed to glass cylinder 10 cm in diameter and 14 cm high. Mirror was position at the angle behind of cylinder for better observation. […] The number of rearing in which mouse used right (impaired), left or both limbs for support against the wall were measured. Paw preference were calculated as ratio of total number of left limb use (left+both) to total number of right (impaired) limb use (right+both).
(§6) Statistic. Data obtained from Vertical screen test were analyzed by one-way ANOVA followed by post-hoc Newman-Keuls test for detection of group differences. […]

[6] = test system: mice with spinal cord hemisection; test: Vertical screen test after spinal cord hemisection; format: in vivo, mouse; conditions: intracerebroventricular injection, compared to vehicle
Method: as §5
Vertical screen (VS). The mouse was placed on a very brink of horizontal wire screen (25×22 cm, diameter of wires 2 mm spaced at 1 cm) faced to edge. Immediately after that the screen was turned vertically to place mouse to upside down position at the lower edge. The time that animal was needed to climb to the upper edge were measured during 1 min. This test was repeated every second week starting from 1st week after surgery.
as §6

Sequence: MPRRRRSSSRPVRRRRRPRVSRRRRRRGGRRRR (Genus/Species name of salmon disclosed by SEQ ID NO 1 is not known) [Protamine, small arginine-rich nuclear protein, from Sigma]
- neuronal attachment and neurite growth on the aggrecan-coated substrate [1]: overcomes the inhibitory action of aggrecan, promoting neuronal attachment and neurite growth; also recorded: overcame this inhibitory action of aggrecan, promoting neuronal attachment and neurite growth; also recorded: active as both the free protein and as sulphate salt
- amount of aggrecan binding to RPTPσ (in words) [2]: increases the amount of aggrecan binding to RPTPσ
- aggrecan binding to mutant RPTPσ [3]: not affected

Sequence: SRPVRRRRRPRVS [Peptide 3]
- neuronal attachment and neurite growth on the aggrecan-coated substrate [4]: overcomes the inhibitory action of aggrecan, promoting neuronal attachment and neurite growth

Sequence: SRPVRRRRRPRVSRRRRRRGGRRRR [Peptide 2]
- neuronal attachment and neurite growth on the aggrecan-coated substrate [1]: overcome the inhibitory action of aggrecan, promoting neuronal attachment and neurite growth; also recorded: displayed activity

Sequence: VSRRRRRRGGRRRR [Peptide 12]
- limb usage on the affected side (cylinder test) [5]: improves functional recovery
- limb usage on the affected side (cylinder test) ([5]; listed as protamine peptide 12): enhances limb usage on the affected side compared to the vehicle
- neuronal attachment and neurite growth on the aggrecan-coated substrate [1]: overcome the inhibitory action of aggrecan, promoting neuronal attachment and neurite growth; also recorded: displayed activity
- time used in the vertical climbing test (vertical screen) [6]: improves functional recovery
- time used in the vertical climbing test (vertical screen) ([6]; listed as protamine peptide 12): becomes shortened compared to injection of the vehicle only
